# Square brackets hold non-standard residues; d marks the D form. Peptide text beside a SMILES is read from it. Cya = N[C@@H](CS(=O)(=O)O)C(=O)O
# Test system: study eye of subjects with intermediate non-exudative AMD
# Experiment: SD-OCT Analysis 2 (thickness, volume, map coverage of retinal layers)
# Assay type: in vivo, human
# Experimental: Numerous study assessments were conducted at various time points throughout the study. Included among these study assessments were; refractive eye examinations, determinations of BCVA AND low-luminance BCVA, Lanthony D-15 color vision test, measurement of intraocular pressure (IOP), Indirect ophthalmoscopy/dilated fundus examinations and spectral-domain optical coherence tomography (SD-OCT). Also, blood and saliva samples were obtained from each subject for genetic analysis. The above-listed study assessments were performed at the time points indicated in Table 1, below: The OCT scans were analyzed by two (2) unrelated experts. In Analysis #2, the OCT images of study eyes were analyzed to determine mean thickness and mean volume of numerous retinal subfields and layer segments at baseline and at Week 12 for sham eyes and at baseline and at Week 32 for risuteganib eyes, to document any significant differences between groups of eyes based on baseline measurements or changes from baseline in those measurements. In addition to the quantitative analysis of OCT images, OCT Analysis #2 included qualitative assessment of the OCT images to identify GA, pseudodrusen, and disruption of the ELM and EZ layers. FIGS. 9A, 9B and 9C illustrate the level of varying pathology within the ELM based on quantitative mapping that were also assessed, with FIG. 9A (left) showing no ELM disruption, FIG. 9B (center) showing segmental disruption, and FIG. 9C showing diffuse disruption.
# [1] = change from baseline at Week 32, risuteganib super-responder eyes, n = 8
# [2] = paired change from baseline at Week 32, risuteganib arm n = 24
# [3] = paired difference from baseline at Week 32, risuteganib arm n = 24
smiles,measurement,setting,value
"C[C@@H](O)[C@H](NC(=O)[C@H](CS(=O)(=O)O)NC(=O)CNC(=O)[C@H](CCCNC(=N)N)NC(=O)CN)C(=O)N1CCC[C@H]1C(=O)O [risuteganib, Glycyl-L-arginylglycyl-3-sulfo-L-alanyl-L-threonyl-L-proline] (H-GRG[Cya]TP-OH)","Change in mean thickness, ELM-RPE mid subfield",[1],−2.493 μm
same,"Change in mean thickness, EZ-RPE central subfield",[1],−1.803 μm
same,"Change in mean thickness, EZ-RPE foveal center",[1],6.825 μm
same,"Change in mean thickness, EZ-RPE mid subfield",[1],−1.445 μm
same,"Change in mean thickness, Inner retina central subfield",[1],8.759 μm
same,"Change in mean thickness, Inner retina mid subfield",[1],8.511 μm
same,"Change in mean thickness, ONL-EZ central subfield",[1],−9.158 μm
same,"Change in mean thickness, ONL-EZ mid subfield",[1],−8.556 μm
same,"Change in mean thickness, ONL-RPE central subfield",[1],−10.961 μm
same,"Change in mean thickness, ONL-RPE foveal center",[1],−6.825 μm
same,"Change in mean thickness, ONL-RPE mid subfield",[1],−10.001 μm
same,"Change in mean thickness, RPE-BM central subfield",[1],−11.226 μm
same,"Change in mean thickness, RPE-BM foveal center",[1],−14.381 μm
same,"Change in mean thickness, RPE-BM mid subfield",[1],−6.715 μm
same,"Change in mean thickness, Total retinal central subfield",[1],−2.202 μm
same,"Change in mean thickness, Total retinal foveal center",[1],−7.569 μm
same,"Change in mean thickness, Total retinal mid subfield",[1],−1.490 μm
same,"Change in volume, ELM-EZ central subfield",[1],−0.001 mm^3
same,"Change in volume, ELM-EZ mid subfield",[1],−0.003 mm^3
same,"Change in volume, ELM-RPE",[1],0.171 mm^3
same,"Change in volume, ELM-RPE central subfield",[1],−0.003 mm^3
same,"Change in volume, ELM-RPE mid subfield",[1],−0.008 mm^3
same,"Change in volume, EZ-RPE",[1],−0.051 mm^3
same,"Change in volume, EZ-RPE central subfield",[1],−0.001 mm^3
same,"Change in volume, EZ-RPE mid subfield",[1],−0.005 mm^3
same,"Change in volume, ONL-EZ central subfield",[1],−0.007 mm^3
same,"Change in volume, ONL-EZ mid subfield",[1],−0.027 mm^3
same,"Change in volume, ONL-RPE",[1],0.044 mm^3
same,"Change in volume, ONL-RPE central subfield",[1],−0.008 mm^3
same,"Change in volume, ONL-RPE mid subfield",[1],−0.032 mm^3
same,"Change in volume, RPE-BM",[1],−0.048 mm^3
same,"Change in volume, RPE-BM central subfield",[1],−0.009 mm^3
same,"Change in volume, RPE-BM mid subfield",[1],−0.021 mm^3
same,"Change in volume, Total retinal",[1],−0.247 mm^3
same,"Change in volume, Total retinal central subfield",[1],−0.001 mm^3
same,"Change in volume, Total retinal mid subfield",[1],−0.005 mm^3
same,"Map coverage, 0 μm EZ",[1],5.026%
same,"Map coverage, 0 μm RPE-BM",[1],1.546%
same,"Map coverage, 10 μm EZ",[1],5.037%
same,"Map coverage, 20 μm EZ",[1],4.506%
same,"Map coverage, 50 μm RPE-BM",[1],−3.222%
same,"Map coverage, 150 μm RPE-BM",[1],2.943%
same,"Map coverage, 250 μm RPE-BM",[1],−0.017%
same,"Change in mean (SD) thickness, ELM-EZ central subfield",[2],−1.827 μm
same,"Change in mean (SD) thickness, ELM-EZ mid subfield",[2],−0.106 μm
same,"Change in mean (SD) thickness, ELM-RPE central subfield",[2],−2.912 μm
same,"Change in mean (SD) thickness, ELM-RPE foveal center",[2],−6.094 μm
same,"Change in mean (SD) thickness, ELM-RPE mid subfield",[2],−1.593 μm
same,"Change in mean (SD) thickness, EZ-RPE central subfield",[2],−1.085 μm
same,"Change in mean (SD) thickness, EZ-RPE foveal center",[2],−0.407 μm
same,"Change in mean (SD) thickness, EZ-RPE mid subfield",[2],−1.486 μm
same,"Change in mean (SD) thickness, Inner retina central subfield",[2],3.880 μm
same,"Change in mean (SD) thickness, Inner retina mid subfield",[2],3.893 μm
same,"Change in mean (SD) thickness, ONL-EZ central subfield",[2],−6.131 μm
same,"Change in mean (SD) thickness, ONL-EZ mid subfield",[2],−4.954 μm
same,"Change in mean (SD) thickness, ONL-RPE central subfield",[2],−7.216 μm
same,"Change in mean (SD) thickness, ONL-RPE foveal center",[2],−3.488 μm
same,"Change in mean (SD) thickness, ONL-RPE mid subfield",[2],−6.441 μm
same,"Change in mean (SD) thickness, RPE-BM central subfield",[2],−4.178 μm
same,"Change in mean (SD) thickness, RPE-BM foveal center",[2],−8.126 μm
same,"Change in mean (SD) thickness, RPE-BM mid subfield",[2],−2.086 μm
same,"Change in mean (SD) thickness, Total retinal central subfield",[2],−3.336 μm
same,"Change in mean (SD) thickness, Total retinal foveal center",[2],−4.154 μm
same,"Change in mean (SD) thickness, Total retinal mid subfield",[2],−2.548 μm
same,"Change in volume, ELM-EZ central subfield",[2],−0.001 mm^3
same,"Change in volume, ELM-EZ mid subfield",[2],0.000 mm^3
same,"Change in volume, ELM-RPE",[2],0.048 mm^3
same,"Change in volume, ELM-RPE central subfield",[2],−0.002 mm^3
same,"Change in volume, ELM-RPE mid subfield",[2],−0.005 mm^3
same,"Change in volume, EZ-RPE",[2],−0.027 mm^3
same,"Change in volume, EZ-RPE central subfield",[2],−0.001 mm^3
same,"Change in volume, EZ-RPE mid subfield",[2],−0.005 mm^3
same,"Change in volume, ONL-EZ central subfield",[2],−0.005 mm^3
same,"Change in volume, ONL-EZ mid subfield",[2],−0.016 mm^3
same,"Change in volume, ONL-RPE",[2],−0.009 mm^3
same,"Change in volume, ONL-RPE central subfield",[2],−0.005 mm^3
same,"Change in volume, ONL-RPE mid subfield",[2],−0.020 mm^3
same,"Change in volume, RPE-BM",[2],−0.006 mm^3
same,"Change in volume, RPE-BM central subfield",[2],−0.003 mm^3
same,"Change in volume, RPE-BM mid subfield",[2],−0.007 mm^3
same,"Change in volume, Total retinal",[2],−0.048 mm^3
same,"Change in volume, Total retinal central subfield",[2],−0.002 mm^3
same,"Change in volume, Total retinal mid subfield",[2],−0.008 mm^3
same,"Map coverage, 0 μm EZ",[3],2.574%
same,"Map coverage, 0 μm RPE-BM",[3],1.282%
same,"Map coverage, 10 μm EZ",[3],2.515%
same,"Map coverage, 20 μm EZ",[3],2.431%
same,"Map coverage, 50 μm RPE-BM",[3],−2.644%
same,"Map coverage, 150 μm RPE-BM",[3],2.739%
same,"Map coverage, 250 μm RPE-BM",[3],−0.006%

# Reference: patent US20220031800A1, “PEPTIDES FOR TREATING NON-EXUDATIVE MACULAR DEGENERATION AND OTHER DISORDERS OF THE EYE” (Allegro Pharmaceuticals, LLC, priority 2019, published 2022)
